Experimental data reported in paper PMC9795544, “Identifying Novel Inhibitors for Hepatic Organic Anion Transporting Polypeptides by Machine Learning-Based Virtual Screening” (Journal of Chemical Information and Modeling, 2022).
Where two headings read alike, the source gives them in different places.

Columns and labels:
Format in all cases: cell-based
OATP1B3 = target: T1, OATP1B3 (Homo sapiens, UniProt Q9NPD5); assay: Pyranine transport inhibition in A431 cells overexpressing OATP1B3; conditions: for IC50: read-out: IC50 (μM) OATP1B3
T1 construct: expressed in transfected cells; host or cells: A431 cells
T1 sequence (Q9NPD5 1-702): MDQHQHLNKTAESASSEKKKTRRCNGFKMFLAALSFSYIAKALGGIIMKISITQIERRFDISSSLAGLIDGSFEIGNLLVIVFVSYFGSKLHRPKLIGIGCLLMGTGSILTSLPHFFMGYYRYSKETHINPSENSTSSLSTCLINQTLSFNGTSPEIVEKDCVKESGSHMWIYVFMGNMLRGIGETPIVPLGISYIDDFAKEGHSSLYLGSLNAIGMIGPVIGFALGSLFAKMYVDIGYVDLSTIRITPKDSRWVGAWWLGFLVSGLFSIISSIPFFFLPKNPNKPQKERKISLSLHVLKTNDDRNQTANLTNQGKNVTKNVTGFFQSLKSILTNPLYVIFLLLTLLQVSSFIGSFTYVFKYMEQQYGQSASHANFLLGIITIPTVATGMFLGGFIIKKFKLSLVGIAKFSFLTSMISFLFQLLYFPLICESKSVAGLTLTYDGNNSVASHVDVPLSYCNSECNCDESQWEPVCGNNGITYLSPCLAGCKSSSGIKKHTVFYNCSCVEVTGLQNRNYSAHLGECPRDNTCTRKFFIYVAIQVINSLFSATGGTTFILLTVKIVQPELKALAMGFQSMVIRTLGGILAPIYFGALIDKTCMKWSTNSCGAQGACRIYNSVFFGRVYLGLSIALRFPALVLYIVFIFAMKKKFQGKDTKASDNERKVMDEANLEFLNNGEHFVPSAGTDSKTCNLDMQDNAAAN
Experimental: (§1) A431 cells overexpressing OATP1B1, OATP1B3, or OATP2B1 or their mock transfected controls were generated previously[30] and maintained in Dulbecco’s modified Eagle medium (DMEM, Gibco, Thermofisher Scientific, Waltham, MA, US) supplemented with 10% fetal bovine serum, 2 mM L-glutamine, 100 units/mL penicillin, and 100 μg/mL streptomycin. Expression and function of OATPs in the cell lines were checked regularly.
(§2) Interaction with OATP1B1, OATP1B3, or OATP2B1 was tested in an indirect transport assay using pyranine (8-hydroxypyrene-1,3,6-trisulfonic acid trisodium salt, H1529, Sigma, Merck, Budapest, Hungary) as the test substrate[31],[32] A431 cells overexpressing OATP1B1, OATP1B3, or OATP2B1 or their mock transfected controls were seeded on 96-well plates in a density of 8 × 10^4 cells per well in 200 μL of cell culture medium 1 day prior to the transport measurements. […] The transport reaction was started by the addition of 50 μL of uptake buffer containing pyranine in a final concentration of 10 μM (OATP1B1) or 20 μM (OATP1B3 and OATP2B1), and the cells were further incubated at 37 °C for 15 min (OATP1B1 and OATP2B1) or 30 min (OATP1B3). The reaction was stopped by removing the supernatant. After repeated washing with ice-cold PBS, fluorescence was determined in an Enspire plate reader (PerkinElmer, Waltham, MA) with excitation/emission wavelengths of 460/510 nm. OATP-dependent transport was calculated by extracting fluorescence measured in mock transfected cells and normalized to the fluorescence signal obtained in the absence of the tested compounds (100%). Experiments were repeated in at least three biological replicates.

OATP2B1 = target: T2, OATP2B1 (Homo sapiens, UniProt O94956); assay: Pyranine transport inhibition in A431 cells overexpressing OATP2B1
T2 construct: expressed in transfected cells; host or cells: A431 cells
T2 sequence (O94956 1-709): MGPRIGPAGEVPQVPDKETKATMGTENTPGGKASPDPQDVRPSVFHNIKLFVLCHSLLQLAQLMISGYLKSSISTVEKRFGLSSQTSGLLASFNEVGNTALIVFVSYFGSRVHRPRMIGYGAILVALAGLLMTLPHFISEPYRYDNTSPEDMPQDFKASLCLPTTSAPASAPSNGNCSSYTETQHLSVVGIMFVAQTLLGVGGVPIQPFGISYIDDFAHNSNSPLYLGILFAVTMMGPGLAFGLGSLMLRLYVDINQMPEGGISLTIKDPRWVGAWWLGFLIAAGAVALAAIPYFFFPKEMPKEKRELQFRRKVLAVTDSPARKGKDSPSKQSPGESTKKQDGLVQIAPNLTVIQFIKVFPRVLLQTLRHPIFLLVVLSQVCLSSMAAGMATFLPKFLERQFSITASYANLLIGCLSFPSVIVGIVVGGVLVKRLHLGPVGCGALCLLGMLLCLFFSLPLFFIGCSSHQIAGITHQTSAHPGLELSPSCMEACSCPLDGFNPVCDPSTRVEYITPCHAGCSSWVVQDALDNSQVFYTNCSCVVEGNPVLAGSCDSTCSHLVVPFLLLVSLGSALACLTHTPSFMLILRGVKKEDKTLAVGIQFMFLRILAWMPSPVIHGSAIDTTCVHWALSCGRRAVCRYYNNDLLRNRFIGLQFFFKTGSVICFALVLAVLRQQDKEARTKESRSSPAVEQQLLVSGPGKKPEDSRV
Experimental: as §1, §2

OATP1B1 = target: T3, OATP1B1 (Homo sapiens, UniProt Q9Y6L6); assay: Pyranine transport inhibition in A431 cells overexpressing OATP1B1
T3 construct: expressed in transfected cells; host or cells: A431 cells
T3 sequence (Q9Y6L6 1-691): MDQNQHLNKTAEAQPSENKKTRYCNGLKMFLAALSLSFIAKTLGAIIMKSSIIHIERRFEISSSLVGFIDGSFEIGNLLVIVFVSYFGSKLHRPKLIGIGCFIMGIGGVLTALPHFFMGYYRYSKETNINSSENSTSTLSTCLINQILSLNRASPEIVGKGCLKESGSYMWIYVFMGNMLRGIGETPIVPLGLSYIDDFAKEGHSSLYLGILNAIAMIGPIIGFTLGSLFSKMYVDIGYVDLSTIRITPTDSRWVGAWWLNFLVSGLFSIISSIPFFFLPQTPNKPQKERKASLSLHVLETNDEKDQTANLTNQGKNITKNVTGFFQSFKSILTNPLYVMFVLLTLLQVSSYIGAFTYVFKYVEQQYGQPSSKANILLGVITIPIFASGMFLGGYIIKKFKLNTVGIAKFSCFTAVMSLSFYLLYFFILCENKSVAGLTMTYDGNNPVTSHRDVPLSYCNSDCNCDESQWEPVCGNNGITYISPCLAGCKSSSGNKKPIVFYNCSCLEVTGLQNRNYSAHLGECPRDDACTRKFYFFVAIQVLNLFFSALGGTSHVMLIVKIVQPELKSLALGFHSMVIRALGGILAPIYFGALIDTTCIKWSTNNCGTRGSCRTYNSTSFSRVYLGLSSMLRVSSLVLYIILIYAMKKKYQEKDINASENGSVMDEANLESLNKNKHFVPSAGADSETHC
Experimental: as §1, §2

[1] = full dose-response curve, eight concentrations, Hill1 fit
[2] = full dose-response curve, eight concentrations, Hill1 fit, read-out: IC50 (μM) OATP2B1
[3] = full dose-response curve, eight concentrations, Hill1 fit, read-out: IC50 (μM) OATP1B1
[4] = initial three-point screen (1, 10, 100 μM), category by concentration needed for 50% inhibition, pyranine 10 μM, 15 min, pH 5.5, read-out: IC50 (μM) OATP1B1
[5] = initial three-point screen (1, 10, 100 μM), category by concentration needed for 50% inhibition, pyranine 20 μM, 30 min, pH 5.5
[6] = initial three-point screen (1, 10, 100 μM), category by concentration needed for 50% inhibition, pyranine 20 μM, 15 min, pH 5.5, read-out: IC50 (μM) OATP2B1
[7] = initial three-point screen (1, 10, 100 μM), category by concentration needed for 50% inhibition, pyranine 10 μM, 15 min, pH 5.5

## O=C(NCc1cn(Cc2ccccc2)nc1-c1ccccc1)c1cc(F)cc(F)c1 [E5, Fc1cc(F)cc(c1)C(=O)NCc2cn(Cc3ccccc3)nc2c4ccccc4]
OATP1B3; [1]
  IC50: 7.5 µM
OATP2B1; [2]
  IC50: 1.48 µM
OATP1B1; [3]
  IC50: 7.61 µM
OATP1B1; [4]
  IC50: 1 to 10 µM

## CCn1cnc2c1c(=O)n(CC(=O)NC1CCCC(C)C1C)c(=O)n2Cc1ccccc1 (centres unmarked) [E6, CCn1cnc2N(Cc3ccccc3)C(=O)N(CC(=O)NC4CCCC(C)C4C)C(=O)c12]
OATP1B3; [5]
  IC50: > 10 µM
OATP2B1; [6]
  IC50: 1 to 10 µM
OATP1B1; [4]
  IC50: > 10 µM

## O=C(Nc1ccccc1)N1CCCC(C(=O)N2CCN(Cc3nc4ccccc4s3)CC2)C1 (centres unmarked) [F3, O=C(Nc1ccccc1)N2CCCC(C2)C(=O)N3CCN(Cc4nc5ccccc5s4)CC3]
OATP1B3; [5]
  IC50: > 10 µM
OATP2B1; [6]
  IC50: > 10 µM
OATP1B1; [4]
  IC50: > 10 µM

## Cc1ccc(OCc2nnc(SCC(=O)N3CCN(C(=O)Nc4ccccc4)CC3)o2)cc1 [F4, Cc1ccc(OCc2oc(SCC(=O)N3CCN(CC3)C(=O)Nc4ccccc4)nn2)cc1]
OATP1B3; [5]
  IC50 (μM) OATP1B3: Activated
OATP2B1; IC50 (μM) OATP2B1, initial three-point screen (1, 10, 100 μM), category by concentration needed for 50% inhibition, pyranine 20 μM, 15 min, pH 5.5
  IC50: > 10 µM
OATP1B1
  IC50: > 10 µM

## Cc1cc(NS(=O)(=O)c2ccc(NC(=O)Cc3coc4c(C)c(C)ccc34)cc2)nc(C)n1 [F5, Cc1cc(NS(=O)(=O)c2ccc(NC(=O)Cc3coc4c(C)c(C)ccc34)cc2)nc(C)n1]
OATP1B3; [5]
  IC50: 1 to 10 µM
OATP2B1; [6]
  IC50: 1 to 10 µM
OATP1B1; [4]
  IC50: 1 to 10 µM

## O=C(NCc1ccc(N2CCOCC2)nc1)c1ccccc1CSc1nc2ccccc2[nH]1 [F6, O=C(NCc1ccc(nc1)N2CCOCC2)c3ccccc3CSc4nc5ccccc5[nH]4]
OATP1B3; [5]
  IC50: > 10 µM
OATP2B1; [6]
  IC50: 1 to 10 µM
OATP1B1; [4]
  IC50: > 10 µM

## O=C(Nc1ccccc1)C1CCN(C(=O)c2cc(-c3ccccc3)nc3ccccc23)CC1 [G2, O=C(Nc1ccccc1)C2CCN(CC2)C(=O)c3cc(nc4ccccc34)c5ccccc5]
OATP1B3; [5]
  IC50: 1 to 10 µM
OATP2B1; [6]
  IC50: 1 to 10 µM
OATP1B1; [4]
  IC50: 1 to 10 µM

## CCC(C)c1ccc(-n2c(SCC(=O)N3c4ccccc4CC3C)nc3ccccc3c2=O)cc1 (centres unmarked) [G4, CCC(C)c1ccc(cc1)N2C(=Nc3ccccc3C2=O)SCC(=O)N4C(C)Cc5ccccc45]
OATP1B3; [1]
  IC50 (μM) OATP1B3: no effect
OATP1B3; [5]
  IC50 (μM) OATP1B3: no effect
OATP2B1; [2]
  IC50: ~6 µM
OATP2B1; [6]
  IC50: 1 to 10 µM
OATP1B1; [1]
  IC50 (μM) OATP1B1: no effect
OATP1B1; [7]
  IC50 (μM) OATP1B1: no effect

## COc1cc2c(cc1NC(=O)CN1C(=O)NC(Cc3c[nH]c4ccccc34)C1=O)oc1ccccc12 (centres unmarked) [G5, COc1cc2c(oc3ccccc23)cc1NC(=O)CN4C(=O)NC(Cc5c[nH]c6ccccc56)C4=O]
OATP1B3; [5]
  IC50: 1 to 10 µM
OATP2B1; [6]
  IC50: 1 to 10 µM
OATP1B1; [4]
  IC50: > 10 µM

## Cc1ccc(N2C(=O)/C(=C\Nc3nc4ccccc4nc3N3CCCC3)c3ccccc3C2=O)c(C)c1 [G6, Cc1ccc(N2C(=O)\C(=C/Nc3nc4ccccc4nc3N5CCCC5)\c6ccccc6C2=O)c(C)c1]
OATP1B3; [5]
  IC50 (μM) OATP1B3: no effect
OATP2B1; [6]
  IC50: > 10 µM
OATP1B1; [7]
  IC50 (μM) OATP1B1: no effect

## O=C(/C=C/c1cn(Cc2ccccc2)nn1)N1CCCC(c2nc3ccccc3s2)C1 (centres unmarked) [H2, O=C(\C=C\c1cn(Cc2ccccc2)nn1)N3CCCC(C3)c4nc5ccccc5s4]
OATP1B3; [5]
  IC50: > 10 µM
OATP2B1; [6]
  IC50: 1 to 10 µM
OATP1B1; [4]
  IC50: > 10 µM

## Cc1cc(C)c(C(=O)CSc2nc3ccccc3c(=O)n2Cc2ccc(F)cc2)c(C)c1 [H4, Cc1cc(C)c(C(=O)CSC2=Nc3ccccc3C(=O)N2Cc4ccc(F)cc4)c(C)c1]
OATP1B3; [5]
  IC50 (μM) OATP1B3: no effect
OATP2B1; initial three-point screen (1, 10, 100 μM), category by concentration needed for 50% inhibition, pyranine 20 μM, 15 min, pH 5.5
  IC50 (μM) OATP2B1: no effect
OATP1B1; [7]
  IC50 (μM) OATP1B1: no effect

## COC(=O)c1c(NC(=O)CN2C(=O)NC3(CCc4ccccc4C3)C2=O)sc2c1CCCCC2 (centres unmarked) [H5, COC(=O)c1c2CCCCCc2sc1NC(=O)CN3C(=O)NC4(CCc5ccccc5C4)C3=O]
OATP1B3; [1]
  IC50: 6.95 µM
OATP1B3; human, pH 5.5, probe pyranine 20 μM, initial three-point screen (1, 10, 100 μM), category by concentration needed for 50% inhibition, pyranine 20 μM, 30 min, pH 5.5
  IC50 at 30 min: > 10 µM
OATP1B3; ratio of IC50 OATP1B3 / OATP2B1
  fold lower affinity on OATP1B3 than on OATP2B1: 18 fold
OATP2B1; [2]
  IC50: 0.39 µM
OATP2B1; [6]
  IC50: < 1 µM
OATP1B1; [3]
  IC50: ~25 µM
OATP1B1; human, pH 5.5, probe pyranine 10 μM, initial three-point screen (1, 10, 100 μM), category by concentration needed for 50% inhibition, pyranine 10 μM, 15 min, pH 5.5, read-out: IC50 (μM) OATP1B1
  IC50 at 15 min: > 10 µM
